Entries after “also recorded” stand apart in the source; their conditions may differ.
What was measured:
[1] = molecular target: T1, RAR-α (Homo sapiens, UniProt P10276); assay: Receptor transactivation, GAL4-RAR chimeric receptor/CAT reporter in HeLa cells; assay type: cell-based; settings: 24 hours
T1 sequence (P10276 with tags, fused parts or gaps limits assumed, species assumed): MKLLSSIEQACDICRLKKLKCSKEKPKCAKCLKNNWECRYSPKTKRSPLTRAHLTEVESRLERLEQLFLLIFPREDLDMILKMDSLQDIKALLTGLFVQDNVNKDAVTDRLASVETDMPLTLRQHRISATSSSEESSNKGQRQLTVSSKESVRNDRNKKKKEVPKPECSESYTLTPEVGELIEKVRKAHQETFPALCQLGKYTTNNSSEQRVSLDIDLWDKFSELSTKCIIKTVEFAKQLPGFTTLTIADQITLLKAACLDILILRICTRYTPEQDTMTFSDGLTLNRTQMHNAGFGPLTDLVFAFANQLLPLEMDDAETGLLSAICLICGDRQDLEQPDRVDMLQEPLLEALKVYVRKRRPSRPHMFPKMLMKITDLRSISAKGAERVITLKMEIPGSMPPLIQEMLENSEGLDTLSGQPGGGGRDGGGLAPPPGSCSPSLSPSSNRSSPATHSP

[2] = molecular target: T2, RAR-β (Homo sapiens, UniProt P10826); assay: as above; assay type: cell-based
T2 sequence (P10826 with tags, fused parts or gaps limits assumed, species assumed): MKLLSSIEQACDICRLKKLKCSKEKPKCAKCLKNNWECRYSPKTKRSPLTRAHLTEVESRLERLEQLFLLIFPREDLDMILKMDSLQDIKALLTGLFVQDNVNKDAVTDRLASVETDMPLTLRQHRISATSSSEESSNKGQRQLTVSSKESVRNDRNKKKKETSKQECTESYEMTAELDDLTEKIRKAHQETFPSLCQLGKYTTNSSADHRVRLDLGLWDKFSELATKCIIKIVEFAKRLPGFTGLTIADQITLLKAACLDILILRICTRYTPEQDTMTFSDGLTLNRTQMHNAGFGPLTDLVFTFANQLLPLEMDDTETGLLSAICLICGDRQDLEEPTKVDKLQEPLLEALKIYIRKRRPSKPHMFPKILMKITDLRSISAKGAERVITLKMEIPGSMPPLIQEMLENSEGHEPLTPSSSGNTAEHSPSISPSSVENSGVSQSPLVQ

[3] = molecular target: T3, RAR-γ (Homo sapiens, UniProt P13631); assay: as above; assay type: cell-based; settings: 24 hours
T3 sequence (P13631 with tags, fused parts or gaps limits assumed, species assumed): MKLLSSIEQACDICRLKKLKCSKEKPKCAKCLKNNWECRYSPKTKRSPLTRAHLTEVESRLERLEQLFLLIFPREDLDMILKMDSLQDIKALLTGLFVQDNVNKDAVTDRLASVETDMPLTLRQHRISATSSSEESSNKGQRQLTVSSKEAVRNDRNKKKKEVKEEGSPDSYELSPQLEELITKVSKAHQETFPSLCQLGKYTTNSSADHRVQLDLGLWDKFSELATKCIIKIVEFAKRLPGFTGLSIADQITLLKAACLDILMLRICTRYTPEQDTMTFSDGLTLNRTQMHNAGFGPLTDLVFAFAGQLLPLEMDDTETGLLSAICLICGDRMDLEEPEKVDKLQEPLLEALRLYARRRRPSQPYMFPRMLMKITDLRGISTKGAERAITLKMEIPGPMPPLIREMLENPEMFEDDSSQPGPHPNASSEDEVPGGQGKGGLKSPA

[4] = molecular target: T2, RAR-β; assay: Transactivation competition assay (antagonist activity) in transfected HeLa cells; assay type: cell-based; settings: for Competition RAR-β % MAX: inhibition of transactivation by 10^−7 M t-RA, 16 hours
[5] = molecular target: T4, RAR-γ (Homo sapiens, UniProt P13631); assay: Receptor binding competition assay with radioactive t-RA; settings: for Kd: apparent Kd from competition with radioactive t-RA, recombinant RAR, read-out: Direct Binding RAR-γ Kd
T4 sequence (P13631 1-454): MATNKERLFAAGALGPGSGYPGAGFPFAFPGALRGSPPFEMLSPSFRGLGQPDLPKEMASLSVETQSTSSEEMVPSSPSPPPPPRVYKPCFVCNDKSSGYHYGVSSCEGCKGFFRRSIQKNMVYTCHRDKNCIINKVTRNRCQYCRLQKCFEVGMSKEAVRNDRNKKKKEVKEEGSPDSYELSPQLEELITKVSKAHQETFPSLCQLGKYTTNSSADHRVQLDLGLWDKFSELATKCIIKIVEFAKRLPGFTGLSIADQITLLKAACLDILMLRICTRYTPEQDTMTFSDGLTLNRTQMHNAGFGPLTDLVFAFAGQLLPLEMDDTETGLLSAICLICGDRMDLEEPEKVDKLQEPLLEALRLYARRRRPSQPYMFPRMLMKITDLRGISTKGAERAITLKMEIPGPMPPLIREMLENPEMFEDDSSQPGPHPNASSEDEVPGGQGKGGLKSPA

[6] = molecular target: T5, RAR-α (Homo sapiens, UniProt P10276); assay: as above; settings: apparent Kd from competition with radioactive t-RA, recombinant RAR; read-out: Direct Binding RAR-α Kd
T5 sequence (P10276 1-462): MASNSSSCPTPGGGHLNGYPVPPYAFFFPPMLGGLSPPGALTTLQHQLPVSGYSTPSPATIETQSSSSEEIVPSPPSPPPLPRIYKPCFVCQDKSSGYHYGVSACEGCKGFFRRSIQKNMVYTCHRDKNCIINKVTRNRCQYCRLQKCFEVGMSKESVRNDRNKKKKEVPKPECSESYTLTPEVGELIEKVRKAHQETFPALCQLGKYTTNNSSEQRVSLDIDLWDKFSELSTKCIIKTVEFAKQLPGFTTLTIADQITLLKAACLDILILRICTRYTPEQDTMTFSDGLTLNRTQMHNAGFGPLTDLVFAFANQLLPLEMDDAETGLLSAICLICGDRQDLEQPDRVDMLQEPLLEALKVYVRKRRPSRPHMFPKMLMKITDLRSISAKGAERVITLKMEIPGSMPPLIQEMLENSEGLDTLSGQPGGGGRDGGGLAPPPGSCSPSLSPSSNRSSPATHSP

[7] = molecular target: T1, RAR-α; assay: Transactivation competition assay (antagonist activity) in transfected HeLa cells; assay type: cell-based; settings: for Competition RAR-α % MAX: inhibition of transactivation by 10^−7 M t-RA, 16 hours
Procedure: (§1) Antagonist Activity Antagonist activity of the test retinoids was evaluated by a transactivation competition assay. Transfected HeLa cells were treated for 16 hours with 10^−7 M t-RA, with or without test retinoids, at concentrations of 10^−8 to 10^−5 M. The cells were then harvested and assayed for CAT activity. The antagonist activity was determined as an IC50 for the inhibition of transactivation produced by t-RA.

[8] = molecular target: T3, RAR-γ; assay: as above; assay type: cell-based; settings: for Competition RAR-γ % MAX: inhibition of transactivation by 10^−7 M t-RA, 16 hours
Procedure: as §1

[9] = system: C57BL/KsJ mice; assay: Skin flap model of angiogenesis; assay type: in vivo
Procedure: The skin flap model is a suitable in vivo approach to monitor the angiogenic response because it requires restoration of the disrupted blood vessel network that is impaired at the distal edge of the flap. A single application of vehicle (ethanol) or different concentrations of Compound 5 were performed. The results were monitored one and two weeks after the initiation of the experiment.
Sections were deparaffinized in xylene and rehydrated in a series of ethanol/water solutions. A 4% mouse non-immune serum in PBS was used for blocking. Monoclonal anti-PECAM-1 antibody (CD31, Sigma) was used at 1:100 dilution. FITC-conjugated anti-mouse IgG antibody (Sigma) was further applied to the sections at 1:200 dilution. Visualization was performed on an Olympus fluorescent microscope.
Female C57BL/KsJ mice were purchased from Jackson Labs (Bar Harbor, Me., USA) at the age of 6 weeks. Animals were acclimated for at least 2 weeks and housed 4 per cage with free access to water and food under 12 h light/dark cycle at a temperature of 23±2° C. and a humidity of 55±10%.
The mice were anesthetized by an IP injection of xyalazine/ketamine, the hair at the back clipped and the surface sterilized with 70% ethanol. A 3-way, full-thickness incision was introduced with the use of a scalpel, the skin flap separated from underlying tissues, the compound or vehicle applied, and the skin repositioned and sutured. Mice were housed individually after the procedure. The animals were sacrificed by CO2 inhalation and tissues were fixed in formalin, embedded in paraffin and evaluated histologically or immunocytochemically.

[10] = molecular target: T6, RAR-β (Homo sapiens, UniProt P10826); assay: Receptor binding competition assay with radioactive t-RA; settings: apparent Kd from competition with radioactive t-RA, recombinant RAR; read-out: Direct Binding RAR-β Kd
T6 sequence (P10826 1-455): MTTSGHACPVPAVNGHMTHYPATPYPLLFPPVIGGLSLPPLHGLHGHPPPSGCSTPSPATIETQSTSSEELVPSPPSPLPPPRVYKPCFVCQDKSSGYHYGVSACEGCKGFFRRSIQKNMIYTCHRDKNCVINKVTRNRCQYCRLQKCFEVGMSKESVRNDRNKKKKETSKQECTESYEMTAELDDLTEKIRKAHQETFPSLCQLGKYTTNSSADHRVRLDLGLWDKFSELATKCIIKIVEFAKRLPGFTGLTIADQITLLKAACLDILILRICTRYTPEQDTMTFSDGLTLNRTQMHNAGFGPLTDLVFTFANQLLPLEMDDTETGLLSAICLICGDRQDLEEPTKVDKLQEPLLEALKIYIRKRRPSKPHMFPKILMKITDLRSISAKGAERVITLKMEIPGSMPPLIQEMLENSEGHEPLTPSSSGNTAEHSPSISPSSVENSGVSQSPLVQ

Row | Compound | Transactivation RAR-α % MAX [1] | Transactivation RAR-β % MAX ([2]; HeLa cells, 24 hours) | Transactivation RAR-γ % MAX [3] | Competition RAR-β % MAX [4] | Kd [5] | Kd [6] | RARβ transactivation (agonistic) activity, in words ([2]; reporter transactivation assays) | IC50 [7] | Competition RAR-α % MAX [7] | IC50 [8] | Competition RAR-γ % MAX [8] | Amount of endothelial cells (anti-PECAM-1 staining) ([9]; 0.01% and 0.1%, dose-dependent, FIG. 4) | Number of blood vessels under the flap (histology, H&E) ([9]; lower dose group, FIG. 3 center panel) | Number of blood vessels under the flap (histology, H&E) ([9]; single application, 0.01% and 0.1%, one and two weeks, vs ethanol vehicle, FIG. 3) | IC50 [4] | Binding to RARγ relative to Compound 4 ([5]; comparison of Kd values) | Kd [10] | EC50 ([2]; HeLa cells, 24 hours, 50% of the effect of 10^−6 M t-RA)
1 | CC1=C(/C=C/C(C)=C/C=C/C(C)=C/C(=O)O)C(C)(C)CCC1 [All Trans RA, all trans retinoic acid, reference compound] | 100% | 100% | 100% | – | – | – | – | – | – | – | – | – | – | – | – | – | – | –
2 | CC1(C)CC=C(c2ccccc2)c2cc(/C=C/c3ccc(C(=O)O)cc3)ccc21 [Compound 4, (E)-4-[2-(5,6-dihydro-5,5-dimethyl-8-phenyl-2-naphthalenyl)ethenyl]benzoic acid] | 0% | 20% | 0% | 80% | 0.5 nM | 1 nM | weak RARβ transactivation activity; also recorded: weak RARβ agonistic activity | 200 nM | 100% | 200 nM | 100% | – | – | – | – | – | – | –
3 | CC1(C)CC=C(C#Cc2ccccc2)c2cc(/C=C/c3ccc(C(=O)O)cc3)ccc21 [Compound 5, (E)-4-[[(5,6-dihydro-5,5-dimethyl-8-phenylethynyl)-2-naphthalenyl]ethenl]benzoic acid] | 0% | 0% | 0% | 100% | 98 nM | 4.2 nM | – | 200 nM | 100% | 300 nM | 100% | increased amounts of endothelial cells; also recorded: higher amounts of endothelial cells | increase in the number of blood vessels | increased angiogenesis; also recorded: significantly higher numbers of blood vessels | 300 nM | approximately two orders weaker | 2.9 nM | –
4 | CC1(C)CC=C(c2ccc3ccccc3c2)c2cc(/C=C/c3ccc(C(=O)O)cc3)ccc21 [Compound 6, (E)-4-[2-[5,6-dihydro-5,5-dimethyl-8-(2-naphthalenyl)-2-naphthalenyl]ethenyl]-benzoic acid] | 0% | 0% | 0% | 100% | 24 nM | 2 nM | – | 300 nM | 100% | 900 nM | 100% | – | – | – | 500 nM | – | 57 nM | –
5 | COc1ccc(C2=CCC(C)(C)c3ccc(/C=C/c4ccc(C(=O)O)cc4)cc32)cc1 [Compound 7, (E)-4-[2-[5,6-dihydro-5,5-dimethyl-8-(4-methoxyphenyl)-2-naphthalenyl]ethenyl]benzoic acid] | 0% | 0% | 0% | 100% | 2.6 nM | 1.3 nM | – | 400 nM | 100% | 1000 nM | 100% | – | – | – | 1000 nM | – | 6.1 nM | –
6 | CC1(C)CC=C(c2ccccc2)c2cc(/C=C/c3ccc(C(=O)O)cc3Cl)ccc21 [Compound 8, (E)-3-chloro-4-[2-(5,6-dihydro-5,5-dimethyl-8-phenyl-2-naphthalenyl)ethenyl]benzoic acid] | 0% | 110% | 0% | 0% | 245 nM | 200 nM | – | 3000 nM | 80% | 2000 nM | 80% | – | – | – | – | – | 2.8 nM | 10 nM

From patent US6713515B2, “Retinoic acid receptor antagonists as promoters of angiogenesis” (Bristol Myers Squibb Company, priority 2000, dated 2004)
